Tests used:
[1] = system: male ob/ob mouse model of Type II diabetes; experiment: Antidiabetic effects in ob/ob mice (serum chemistry after 2 weeks daily oral dosing); type: in vivo
Method: Obese (ob/ob) mice have a defect in the protein leptin, a regulator of appetite and fuel metabolism, leading to hyperphagia, obesity and diabetes.
Male obese (ob/ob homozygote) C57BL/6J mice, approximately 8 weeks of age, were obtained from Jackson Labs (Bar Harbor, Me.) and randomly assigned into groups of 5 animals each such that the body weights (45-50 g) and serum glucose levels (≧300 mg/dl in fed state) were similar between groups. A minimum of 7 days was allowed for adaptation after arrival. All animals were maintained under controlled temperature (23° C.), relative humidity (50±5%) and light (7:00-19:00), and allowed free access to standard chow (Formulab Diet 5020 Quality Lab Products, Elkridge, Md.) and water.
Treatment cohorts were given daily oral doses of vehicle (1% hydroxypropyl-methylcellulose), Compounds BI, CF, CA, CB, CC, or CD for 2 weeks. At the end of the treatment period 100 μl of venous blood was withdrawn in a heparinized capillary tube from the retro-orbital sinus of ob/ob mice for serum chemistry analysis.

[2] = biological target: T1, Mouse PPARγ LBD fusion protein (Mus musculus, UniProt P37238); experiment: Transcription activation potential, GAL4 luciferase reporter in Hepa1.6 cells; type: cell-based
T1 sequence (P37238 238-503): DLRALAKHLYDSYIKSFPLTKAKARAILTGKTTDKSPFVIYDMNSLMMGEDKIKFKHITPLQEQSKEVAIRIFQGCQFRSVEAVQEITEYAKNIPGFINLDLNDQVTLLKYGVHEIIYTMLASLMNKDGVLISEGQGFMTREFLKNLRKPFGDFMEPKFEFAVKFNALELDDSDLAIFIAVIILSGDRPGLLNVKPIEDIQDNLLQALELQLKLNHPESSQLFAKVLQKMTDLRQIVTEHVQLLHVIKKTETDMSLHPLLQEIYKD
Method: (§1) Cells were seeded in 24 well plates the day prior to transfection at 5×10^4−2×10^5 cells/well, depending upon cell type. Cells were transfected using Lipofectamine 2000 reagent from Invitrogen. A total of 0.8 μg DNA/well was added to 50 μL of Optimem Reduced Serum media (serum free; Gibco). Lipofectamine 2000 was added (2.5 μL/well) to another tube containing 50 μL of Optimem media. Plasmid DNA was added at a ratio of 4:3 (reporter:activator); where appropriate, salmon sperm DNA was substituted for activator expressing plasmid. […] DNA constructs containing the mouse PPARα or PPARγ LBD fused to the GAL4 DNA binding domain were also used. The two solutions were incubated at room temperature for 5 min, and then combined. The combined solution was incubated at room temperature for approximately 30 min. Cells were washed once with PBS, and 100 μL of transfection mix added to each well. Plates were incubated at 37° C. in a 5% CO2 incubator for 4.5 hr, followed by aspiration of the transfection mix, with plates refed using EMEM complete media (supplemented with 10% FBS, 1× Glutamine). 24 hr post-transfection, plates were treated with the appropriate compounds in EMEM complete media, followed by washing once with PBS and addition of 100 μL 1× reporter lysis buffer/well (Promega) 24 hr after treatment. Plates went through one freeze/thaw cycle prior to analysis. Approximately 10 μL of lysate was added to 100 μL of firefly luciferase substrate, mixed by pipetting, and analyzed on a luminometer for 10 s using the integration function (relative luciferase units/RLU) or on a Microbeta Trilux (luciferase counts per second/LCPS). Each treatment was performed in triplicate, and in multiple, separate experiments.

[3] = system: Human PPARγ LBD fusion protein; experiment: Transcription activation potential, GAL4 luciferase reporter in C3A cells; type: cell-based
Method: as §1

[4] = biological target: T1, Mouse PPARγ LBD fusion protein; experiment: as above; type: cell-based
Method: as §1

[5] = 60 mg/kg, 2 weeks daily oral dosing
[6] = 100 μM test compound, Table 20b
[7] = 200 μM test compound, Table 20b

transcription activation potential (luciferase) ± standard deviation ([4]; 1 μM test compound, Table 20b) [LCPS] | transcription activation potential (luciferase) ± standard deviation ([4]; 1 μM, Table 21b) [RLU] | transcription activation potential (luciferase) ± standard deviation ([4]; 3 μM test compound, Table 20b) [LCPS] | transcription activation potential (luciferase) ± standard deviation ([4]; 10 μM test compound, Table 20b) [LCPS] | transcription activation potential (luciferase) ± standard deviation ([4]; 10 μM, Table 21b) [RLU] | transcription activation potential (luciferase) ± standard deviation ([4]; 30 μM test compound, Table 20b) [LCPS] | transcription activation potential (luciferase) ± standard deviation ([4]; 30 μM, Table 21b) [RLU] | transcription activation potential (luciferase) ± standard deviation [4, 6] [LCPS] | transcription activation potential (luciferase) ± standard deviation ([4]; 100 μM, Table 21b) [RLU] | transcription activation potential (luciferase) ± standard deviation [4, 7] [LCPS] | SMILES | transcription activation potential (luciferase) ± standard deviation ([3]; 1 μM test compound) [LCPS] | transcription activation potential (luciferase) ± standard deviation ([3]; 3 μM test compound) [LCPS] | transcription activation potential (luciferase) ± standard deviation ([3]; 10 μM test compound) [LCPS] | transcription activation potential (luciferase) ± standard deviation ([3]; 30 μM test compound) [LCPS] | transcription activation potential (luciferase) ± standard deviation ([3]; 100 μM test compound) [LCPS] | transcription activation potential (luciferase) ± standard deviation ([3]; 200 μM test compound) [LCPS] | also measured
0.33 ± 0.21 | 146 ± 119 | 10.6 ± 8.74 | 17.2 ± 21 | 207 ± 107 | 88.2 ± 33.2 | 818 ± 1201 | 45.8 ± 36.9 | 237 ± 216 | 93.6 ± 29.7 | Cc1cccc(C)c1COc1cccc(CC(=O)O)c1 [Compound CF, 3-(2,6-Dimethylbenzyloxy)phenylacetic acid] | 6.2 ± 0.6 | 49.4 ± 7.8 | 141.5 ± 25.9 | 230.4 ± 97.2 | 225.2 ± 57.5 | 280.1 ± 89.7 | Glucose ([1]; 60 mg/kg daily oral, 2 weeks): 161.2 ± 14.0 mg/dL; Glucose (% of Control) ([1]; 60 mg/kg daily oral, 2 weeks): 38.0 ± 3.0 % of Control; reduction in blood glucose (in words) [1, 5]: significant reduction; reduction in free fatty acids (in words) [1, 5]: significant reduction; reduction in triglycerides (in words) [1, 5]: significant reduction; transcription activation potential (luciferase) ± standard deviation ([2]; 1 μM): 361 ± 138 RLU; transcription activation potential (luciferase) ± standard deviation ([2]; 3 μM): 602 ± 144 RLU; transcription activation potential (luciferase) ± standard deviation ([2]; 5 μM): 710 ± 87 RLU; transcription activation potential (luciferase) ± standard deviation ([2]; 7 μM): 786 ± 418 RLU; transcription activation potential (luciferase) ± standard deviation ([2]; 10 μM): 1140 ± 111 RLU; transcription activation potential (luciferase) ± standard deviation ([2]; 30 μM): 1253 ± 554 RLU; transcription activation potential (luciferase) ± standard deviation ([2]; 100 μM): 1534 ± 608 RLU; transcription activation potential (luciferase) ± standard deviation ([4]; 3 μM, Table 21b): 579 ± 557 RLU; transcription activation potential (luciferase) ± standard deviation ([4]; 5 μM, Table 21b): 476 ± 527 RLU; transcription activation potential (luciferase) ± standard deviation ([4]; 7 μM, Table 21b): 834 ± 984 RLU
8.47 ± 5.01 | 634 ± 195 | 14.8 ± 4.3 | 20.87 ± 4.1 | 405 ± 318 | 55.4 ± 30.6 | 1562 ± 354 | 78.8 ± 23.1 | 2555 ± 1609 | 101.2 ± 59.1 | Cc1cccc(C)c1COc1cccc(C(=O)O)c1 [Compound CG, 3-(2,6-Dimethylbenzyloxy)benzoic acid] | 47.9 ± 7.2 | 73.6 ± 39.1 | 72.5 ± 28.2 | 205.6 ± 37.1 | 403.6 ± 86.1 | 598.1 ± 190.4 | –

Reference: US7932290B2, “Method for the treatment of metabolic disorders” (Wellstat Biologics Corporation, priority 2003, dated 2011)
